Patent US20260355212A1 (priority 2022, published 2026)

What follows are molecules tested against SARS-CoV-2 Mpro (Severe acute respiratory syndrome coronavirus 2, UniProt P0DTD1) (assay: SARS-CoV-2 Mpro enzymatic inhibition assay (fluorescence)). Settings: not given.
Format: biochemical
Protocol: The hCoV Mpro are cloned, expressed in E. coli and purified by WuXi AppTec Co., Ltd. The substrate are synthesized by Genscript Biotech.
Compounds are 3 fold serially diluted for 10 doses and added to an assay plate (384w format) using ECHO, in duplicate wells. The test concentration of test compounds is defined by sponsor.
25 μL of Mpro proteins are added to the assay plates containing compounds, respectively, using Multidrop. The compounds and Mpro proteins are pre-incubated at room temperature for 30 min. Then 5 µL of Mpro substrates are added to the related assay plates, respectively.
After 60 min incubation at 30° C., the fluorescence signal (RFU) is detected using a microplate reader M2e (SpectraMax) at Ex/Em=340 nm/490 nm.
The inhibition activity is calculated using the formula below, IC50 values will be calculated using the Inhibition % data.
IC50 values of compounds are calculated with the GraphPad Prism software using the nonlinear regression model of log(inhibitor) vs. response—Variable slope (four parameters).

In order of falling IC50:
1. O=C[C@H](C[C@@H]1CCNC1=O)NC(=O)[C@@H]1C[C@H](Oc2ccccc2)CN1C(=O)c1cc2ccccc2[nH]1 [Compound 134, (2S,4S)-1-(1H-Indole-2-carbonyl)-N—((S)-1-oxo-3-((S)-2-oxopyrrolidin-3-yl)propan-2-yl)-4-phenoxypyrrolidine-2-carboxamide]  451 nM
2. O=C[C@H](C[C@@H]1CCNC1=O)NC(=O)[C@@H]1C[C@@H](Oc2ccccc2)CN1C(=O)c1cc2ccccc2[nH]1 [Compound 133, (2S,4R)-1-(1H-Indole-2-carbonyl)-N—((S)-1-oxo-3-((S)-2-oxopyrrolidin-3-yl)propan-2-yl)-4-phenoxypyrrolidine-2-carboxamide]  443 nM
3. CC1(C)[C@@H]2[C@@H](C(=O)N[C@@H](C[C@@H]3CCNC3=O)C(=O)C(=O)NC3CC3)N(C(=O)C3(c4ccccc4)CC3)C[C@@H]21 [Compound 119, (1R,2S,5S)—N—((S)-4-(cyclopropylamino)-3,4-dioxo-1-((S)-2-oxopyrrolidin-3-yl)butan-2-yl)-6,6-dimethyl-3-(1-phenylcyclopropanecarbonyl)-3-azabicyclo[3.1.0]hexane-2-carboxamide]  143 nM
4. CC1(C)[C@@H]2[C@@H](C(=O)N[C@H](C=O)C[C@@H]3CCNC3=O)N(C(=O)c3cc4c(F)c(Cl)ccc4[nH]3)C[C@@H]21 [Compound 117, (1R,2S,5S)-3-(5-Chloro-4-fluoro-1H-indole-2-carbonyl)-6,6-dimethyl-N—((S)-1-oxo-3-((S)-2-oxopyrrolidin-3-yl)propan-2-yl)-3-azabicyclo[3.1.0]hexane-2-carboxamide]  126 nM
5. CC(C)(C)[C@H](NC(=O)c1cc2ccccc2[nH]1)C(=O)N1C[C@H]2[C@@H]([C@H]1C(=O)N[C@@H](C[C@@H]1CCNC1=O)C(=O)C(N)=O)C2(C)C [Compound 116, N—((S)-1-((1R,2S,5S)-2-(((S)-4-amino-3,4-dioxo-1-((S)-2-oxopyrrolidin-3-yl)butan-2-yl)carbamoyl)-6,6-dimethyl-3-azabicyclo[3.1.0]hexan-3-yl)-3,3-dimethyl-1-oxobutan-2-yl)-1H-indole-2-carboxamide]  118 nM
6. CC1CCC(CC(=O)N2C[C@H]3[C@@H]([C@H]2C(=O)N[C@@H](C[C@@H]2CCNC2=O)C(=O)C(=O)NC2CC2)C3(C)C)CC1 (stereo partly drawn) [Compound 105, (1R,2S,5S)—N—((S)-4-(Cyclopropylamino)-3,4-dioxo-1-((S)-2-oxopyrrolidin-3-yl)butan-2-yl)-6,6-dimethyl-3-(2-(4-methylcyclohexyl)acetyl)-3-azabicyclo[3.1.0]hexane-2-carboxamide]  73.2 nM
7. O=C[C@H](C[C@@H]1CCNC1=O)NC(=O)[C@@H]1C[C@H](C2CCCCC2)CN1C(=O)c1cc2ccccc2[nH]1 [Compound 103, (2S,4R)-4-cyclohexyl-1-(1H-Indole-2-carbonyl)-N—((S)-1-oxo-3-((S)-2-oxopyrrolidin-3-yl)propan-2-yl)pyrrolidine-2-carboxamide]  63.9 nM
8. COc1cc2[nH]c(C(=O)N3C[C@H]4[C@@H]([C@H]3C(=O)N[C@H](C=O)C[C@@H]3CCNC3=O)C4(C)C)cc2cc1F [Compound 101, (1R,2S,5S)-3-(5-Fluoro-6-methoxy-1H-indole-2-carbonyl)-6,6-dimethyl-N—((S)-1-oxo-3-((S)-2-oxopyrrolidin-3-yl)propan-2-yl)-3-azabicyclo[3.1.0]hexane-2-carboxamide]  56.3 nM
9. CC1(C)[C@@H]2[C@@H](C(=O)N[C@@H](C[C@@H]3CCNC3=O)C(=O)C(=O)NC3CC3)N(C(=O)C3(c4ccccc4)CCCC3)C[C@@H]21 [Compound 99, (1R,2S,5S)—N—((S)-4-(Cyclopropylamino)-3,4-dioxo-1-((S)-2-oxopyrrolidin-3-yl)butan-2-yl)-6,6-dimethyl-3-(1-phenylcyclopentanecarbonyl)-3-azabicyclo[3.1.0]hexane-2-carboxamide]  51.4 nM
10. CC1(C)[C@@H]2[C@@H](C(=O)N[C@H](C=O)C[C@@H]3CCNC3=O)N(C(=O)c3cc4ccc(C(F)(F)F)cc4[nH]3)C[C@@H]21 [Compound 96]  49.2 nM
11. O=C[C@H](C[C@@H]1CCNC1=O)NC(=O)[C@@H]1CC2(CC2)CN1C(=O)c1cc2cccc(F)c2[nH]1 [Compound 87, (S)-5-(7-Fluoro-1H-indole-2-carbonyl)-N—((S)-1-oxo-3-((S)-2-oxopyrrolidin-3-yl)propan-2-yl)-5-azaspiro[2.4]heptane-6-carboxamide]  40.1 nM
12. CCOc1cccc2[nH]c(C(=O)N3C[C@H]4[C@@H]([C@H]3C(=O)N[C@H](C=O)C[C@@H]3CCNC3=O)C4(C)C)cc12 [Compound 70, (1R,2S,5S)-3-(4-Ethoxy-1H-indole-2-carbonyl)-6,6-dimethyl-N—((S)-1-oxo-3-((S)-2-oxopyrrolidin-3-yl)propan-2-yl)-3-azabicyclo[3.1.0]hexane-2-carboxamide]  30.1 nM
13. COc1ccc2[nH]c(C(=O)N3C[C@H]4[C@@H]([C@H]3C(=O)N[C@H](C=O)C[C@@H]3CCNC3=O)C4(C)C)cc2c1 [Compound 68, (1R,2S,5S)-3-(5-Methoxy-1H-indole-2-carbonyl)-6,6-dimethyl-N—((S)-1-oxo-3-((S)-2-oxopyrrolidin-3-yl)propan-2-yl)-3-azabicyclo[3.1.0]hexane-2-carboxamide]  28 nM
14. CC(C)Oc1cccc2[nH]c(C(=O)N3C[C@H]4[C@@H]([C@H]3C(=O)N[C@H](C=O)C[C@@H]3CCNC3=O)C4(C)C)cc12 [Compound 66, (1R,2S,5S)-3-(4-Isopropoxy-1H-indole-2-carbonyl)-6,6-dimethyl-N—((S)-1-oxo-3-((S)-2-oxopyrrolidin-3-yl)propan-2-yl)-3-azabicyclo[3.1.0]hexane-2-carboxamide]  27.6 nM
15. CC1(C)[C@@H]2[C@@H](C(=O)N[C@@H](C[C@@H]3CCNC3=O)C(=O)C(=O)NC3CC3)N(C(=O)C3(c4cccc(Cl)c4)CC3)C[C@@H]21 [Compound 45, (1R,2S,5S)-3-(1-(3-Chlorophenyl)cyclopropanecarbonyl)-N—((S)-4-(cyclopropylamino)-3,4-dioxo-1-((S)-2-oxopyrrolidin-3-yl)butan-2-yl)-6,6-dimethyl-3-azabicyclo[3.1.0]hexane-2-carboxamide]  22.5 nM
16. N#Cc1cccc2cc(C(=O)N3CC4(CC4)C[C@H]3C(=O)N[C@H](C=O)C[C@@H]3CCNC3=O)[nH]c12 [Compound 46, (S)-5-(7-cyano-1H-indole-2-carbonyl)-N—((S)-1-oxo-3-((S)-2-oxopyrrolidin-3-yl)propan-2-yl)-5-azaspiro[2.4]heptane-6-carboxamide]  22.5 nM
17. CC1(C)[C@@H]2[C@@H](C(=O)N[C@H](C=O)C[C@@H]3CCNC3=O)N(C(=O)c3cc4cc(Cl)cc(Cl)c4[nH]3)C[C@@H]21 [Compound 44, (1R,2S,5S)-3-(5,7-Dichloro-1H-indole-2-carbonyl)-6,6-dimethyl-N—((S)-1-oxo-3-((S)-2-oxopyrrolidin-3-yl)propan-2-yl)-3-azabicyclo[3.1.0]hexane-2-carboxamide]  22.2 nM
18. CC1(C)[C@@H]2[C@@H](C(=O)N[C@H](C=O)C[C@@H]3CCNC3=O)N(C(=O)c3cc4ccc(Cl)cc4[nH]3)C[C@@H]21 [Compound 42, (1R,2S,5S)-3-(6-Chloro-1H-indole-2-carbonyl)-6,6-dimethyl-N—((S)-1-oxo-3-((S)-2-oxopyrrolidin-3-yl)propan-2-yl)-3-azabicyclo[3.1.0]hexane-2-carboxamide]  22.1 nM
19. CC1(C)[C@@H]2[C@@H](C(=O)N[C@H](C=O)C[C@@H]3CCNC3=O)N(C(=O)c3cc4c(C5CC5)cccc4[nH]3)C[C@@H]21 [Compound 41, (1R,2S,5S)-3-(4-Cyclopropyl-1H-indole-2-carbonyl)-6,6-dimethyl-N—((S)-1-oxo-3-((S)-2-oxopyrrolidin-3-yl)propan-2-yl)-3-azabicyclo[3.1.0]hexane-2-carboxamide]  21.8 nM

Same assay, conditions: mean; 25 nM protein, 25 μM substrate; 30 min pre-incubation, 60 min at 30° C.; read-out: Mpro_SARS-CoV-2 mean IC50

`CC1(C)C[C@@H](C(=O)N[C@H](C=O)C[C@@H]2CCNC2=O)N(C(=O)c2cc3ccccc3[nH]2)C1` [Compound 57, (S)-1-(1H-Indole-2-carbonyl)-4,4-dimethyl-N—((S)-1-oxo-3-((S)-2-oxopyrrolidin-3-yl)propan-2-yl)pyrrolidine-2-carboxamid] was tested, and the IC50 was 25.8 nM.
